In US6579536B1, “Sustained-release pharmaceutical preparation containing tilidine mesylate as active ingredient” (Hexal AG, priority 1998, dated 2003):

Test: Stability of tilidine mesylate in solid form, in combination with solid additives

Substance: tilidine mesylate
- decomposition in the solid form (stability): virtually does not undergo any decomposition
